Literature values as cited in US10227406B2, “Cannabinoid receptor-1 (CB1) monoclonal antibodies” (AMGEN INC., priority 2013, dated 2019).

Key:
[1] = cited from earlier work; for food intake, body weight gain and metabolic parameters: mice; for brain penetration: mouse, in vivo
[2] = multiple clinical trials; cited from earlier work
[3] = in vivo; cited from earlier work

Row | SMILES | food intake, body weight gain and metabolic parameters [1] | brain penetration [1] | adverse CNS effects [2] | body weight and metabolic parameters [3]
1 | Cc1c(C(=O)NN2CCS(=O)(=O)CC2)nn(-c2ccc(Cl)cc2Cl)c1-c1ccc(C#CCCC#N)cc1 [AM6545] | reduce food intake and body weight gain and improve multiple metabolic parameters | poor brain penetration |  | 
2 | CC(C)[C@H](N=C(NS(=O)(=O)c1ccc(Cl)cc1)N1C[C@H](c2ccccc2)C(c2ccc(Cl)cc2)=N1)C(N)=O [JD5037] | reduce food intake and body weight gain and improve multiple metabolic parameters | poor brain penetration |  | 
3 | Cc1c(C(=O)NN2CCCCC2)nn(-c2ccc(Cl)cc2Cl)c1-c1ccc(Cl)cc1 [rimonabant] |  |  | increased the incidence of anxiety, depression, and suicidal ideation | reduce body weight and improve metabolic parameters
4 | C[C@H](NC(=O)C(C)(C)Oc1ccc(C(F)(F)F)cn1)[C@@H](Cc1ccc(Cl)cc1)c1cccc(C#N)c1 [taranabant] |  |  |  | reduce body weight and improve metabolic parameters
